Experimental data reported in article PMC3427316 (PLoS ONE, 2012).

What was measured:
[1] = tested on: NA with I223R mutation of H1N1pdm09 virus; assay type: biochemical, influenza A(H1N1)pdm09 virus
[2] = tested on: H1N1pdm09 virus resistant to oseltamivir; conditions: zanamivir inhaled (n = 8), intravenous (n = 5) or nebulised (n = 1); cited from earlier work

| SMILES | reduction in susceptibility associated with the I223R mutation [1] [fold] | patients with reduced viral shedding or recovery [2] |
| --- | --- | --- |
| CCC(CC)O[C@@H]1C=C(C(=O)O)C[C@H](N)[C@H]1NC(C)=O [OC, oseltamivir carboxylate] | 9 to 18 |  |
| CC(=O)N[C@H]1[C@H]([C@H](O)[C@H](O)CO)OC(C(=O)O)=C[C@@H]1N=C(N)N [ZAN, zanamivir] |  | 12/14 |
